Experimental data as given in publication PMC5462101 (Future medicinal chemistry, 2015).

Key:
[1] = Competition with DMSO for hydroxyl radicals; details: compound at 100 µM, Fe3+/ascorbic acid, DMSO 33 mM
Experimental: Competition of the novel pteridine derivatives with dimethyl sulfoxide for hydroxyl radicals was measured. […] The majority of the derivatives were excellent scavengers of hydroxyl radicals with activity higher than the reference compound 6-hydroxy-2,5,7,8-tetramethylchroman-2-carboxylic acid (Trolox).
Competition of pteridine derivatives with DMSO for hydroxyl radicals
Hydroxyl radicals generated by the Fe^3+/ascorbic acid system were detected by determination of formaldehyde produced from the oxidation of DMSO, according to the procedure of Nash. The reaction mixture comprised ethylenediaminetetracetic acid (EDTA) (0.1 mM), Fe^3+ (167 μM), DMSO (33 mM) in phosphate buffer (50 mM, pH 7.4), ascorbic acid (10 mM) and the compound to be tested at 100 µM. After incubation at 37 °C for 30 min the mixture was quenched with aqueous trichloroacetic acid (17% w/v) (Table 2) and the percentage competition of the tested compounds with DMSO for hydroxyl radicals was determined (Table 2).

[2] = Inhibition of linoleic acid peroxidation (AAPH); details: linoleic acid peroxidation initiated by AAPH, 37 °C, pH 7.4
From the text: Azo compounds that generate free radicals through spontaneous thermal decomposition are useful for in vitro studies of free radical production. The water-soluble AAPH has been extensively used as a clean and controllable source of thermally produced alkylperoxyl free radicals. […] Evidently, the presence of 6,7-dimethyl groups on the pteridine ring greatly enhances protection against lipid peroxidation; the nature of the alkyl group and ring size on the 2-substituent has some, but much less, effect. […] The role of lipophilicity (as assessed from calculated clogP values; Table 1) is not clear, but substituent bulk plays a significant role.
Inhibition of linoleic acid peroxidation
Production of conjugated diene hydroperoxide by oxidation of linoleic acid in an aqueous dispersion was monitored at 234 nm. 2,2’-Azobis(2-amidinopropane) dihydrochloride (AAPH) was used as a free radical initiator. This assay was used to follow oxidative changes and to determine the inhibition of the peroxidation of sodium linoleate by each tested compound. A dispersion of sodium linoleate (16 mM, 10 μL) was added to the UV cuvette containing phosphate buffer (0.05 M, 0.93 mL) at pH 7.4 and kept in a thermostat at 37 °C. The oxidation reaction was initiated at 37 °C under air by the addition of AAPH solution (40 mM, 50 μL). Oxidation was carried out in the presence of aliquots (10 μL) of the tested compound. In the assay without antioxidant, lipid oxidation was measured in the presence of DMSO (10 μL). The rate of oxidation at 37 °C was monitored by recording the increase in absorption at 234 nm caused by conjugated diene hydroperoxide formation (Table 2).
(§1) IC50 determinations. OriginPro 8 was used to determine IC50 values from the sigmoidal line fitted to a graph of log[concentration] against the average percentage inhibition from two independent experiments, with at least 6 different concentrations. The SEM is the calculated standard error in the IC50 value of the fitted line.

[3] = Reducing ability in DPPH assay; details: compound 100 μM
Experimental: Previous work has shown that pterins, their dihydro- and their tetrahydro-derivatives can each be antioxidants or pro-oxidants, depending on the particular conditions. In the present study, several assays were used to assess in vitro antioxidant activity in order to obtain representative information; each method involves the generation of a different radical.
Determination of reducing activity using 1,1-diphenyl-2-picrylhydrazyl radical (DPPH)
To a solution of DPPH in absolute ethanol was added an equal volume of the compound to be tested dissolved in DMSO (20 µL). From a stock solution (10 mM) was prepared a final solution of 100 µM for evaluation of the compounds. The absorbance at 517 nm was recorded after 20 and 60 min at room temperature (Table 2).

rat model of colitis = assay: Acetic acid-induced colitis in the rat; type: in vivo, Fisher 344 rats; details: 0.01 mmol/kg intrarectally, 4% acetic acid, assessed after 48 h
Experimental: LOX has also been associated with inflammation and ulcerative colitis. In the present study, a model for colitis involving intracolonic administration of aqueous 4% acetic acid in the rat was used, leading to acute inflammatory reaction. Treated rats presented partial to diffuse petechial bleeding, single erosion and limited ulceration indicating an overall healing effect of the compounds. Substituted pteridines presenting a satisfactory combination of activities 5a, 18a, 18d and 18f were tested using this in vivo model characterized by diffuse exfoliated mucosa as well as multiple and extended erosion and ulcers of the colon (Table 3). No mortality was encountered.
Fisher 344 rats (150-200 g) were housed in wire-mesh cages, given standard laboratory chow and tap water ad libitum and acclimatized for one week before experiments. Rats were randomly assigned to experimental groups. All in vivo experiments conform to the law for the protection of experimental animals (Republic of Greece) and are registered at the Veterinary Administration of the Republic of Greece in accordance with recognized guidelines on animal experimentation including Directive 2010/63/EU.
Induction of colitis
Rats were anesthetized using pentobarbital (50 mg/kg ip) prior to administration with 1 mL of either vehicle (0.9% w/v saline) or the compound under study at doses 0.01mmol/kg intrarectally via a polyethylene cannula (fitted to a 1 mL syringe) with the tip inserted approximately 8 cm into the anus. Following 30 min pretreatment, 1 ml of 4% acetic acid was introduced into the colon intrarectally and, after exposure for 60 s, the excess fluid was withdrawn. The luminal content was then expelled by instillation of air (10 mL), the ligature was removed and the abdomen was sutured. Both groups of rats were allowed to recover with food and water and the resulting injury was assessed after 48 h. The experiment was conducted using two groups, each containing 3 animals.
Assessment of colonic damage. Rats were weighed, inspected for the presence of diarrhea and sacrificed using diethyl ether. The colons were excised and opened longitudinally, rinsed with cold saline, pinned out and observed under a dissecting microscope. Colonic damage was scored using the system of MacPherson and Pfeiffer: 0 – normal appearance, 1- hyperaemia, 2 – patchy petechial bleeding, 3 – diffuse petechial bleeding, 4 – partial exfoliated mucosa or single erosion or ulceration, 5 – diffuse exfoliated mucosa or multiple erosions or ulceration. The presence or absence of adhesions between the colon and the surrounding tissues was recorded. Scoring of the colonic damage (Table 4) was carried out by an observer unaware of the treatment.

soybean lipoxygenase = molecular target: T1, soybean lipoxygenase (Glycine max, UniProt P08170); assay: Inhibition of soybean lipoxygenase; type: biochemical; details: for inhibition at 100 µM: compound at 100 µM, read-out: Lipoxygenase inhibitory activity (% at 100 µM); for IC50: sodium linoleate 0.1 mM, read-out: Lipoxygenase inhibitory activity (IC50)
T1 construct: purchased Sigma
T1 sequence (P08170 1-839): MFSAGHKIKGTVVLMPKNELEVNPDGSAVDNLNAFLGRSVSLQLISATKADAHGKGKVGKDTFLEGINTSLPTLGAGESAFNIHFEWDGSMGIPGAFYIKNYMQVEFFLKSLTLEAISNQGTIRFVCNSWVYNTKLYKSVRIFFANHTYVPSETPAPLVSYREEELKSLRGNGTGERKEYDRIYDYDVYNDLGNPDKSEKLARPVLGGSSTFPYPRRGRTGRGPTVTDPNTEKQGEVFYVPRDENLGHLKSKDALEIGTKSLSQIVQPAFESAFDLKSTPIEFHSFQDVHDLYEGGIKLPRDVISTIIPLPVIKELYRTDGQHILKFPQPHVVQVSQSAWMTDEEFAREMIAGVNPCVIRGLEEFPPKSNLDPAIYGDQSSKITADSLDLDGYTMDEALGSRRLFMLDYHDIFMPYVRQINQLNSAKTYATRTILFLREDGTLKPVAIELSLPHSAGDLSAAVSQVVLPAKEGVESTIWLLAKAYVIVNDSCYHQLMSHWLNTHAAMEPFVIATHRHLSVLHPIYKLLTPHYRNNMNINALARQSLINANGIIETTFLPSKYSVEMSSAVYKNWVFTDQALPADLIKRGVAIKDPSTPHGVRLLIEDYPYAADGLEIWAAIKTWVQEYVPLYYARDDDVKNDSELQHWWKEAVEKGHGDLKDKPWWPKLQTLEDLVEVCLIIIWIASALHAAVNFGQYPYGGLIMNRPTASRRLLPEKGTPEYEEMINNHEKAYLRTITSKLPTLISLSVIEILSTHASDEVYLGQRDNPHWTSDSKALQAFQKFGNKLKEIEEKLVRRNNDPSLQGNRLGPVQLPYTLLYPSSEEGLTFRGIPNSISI
Experimental: The substituted pteridines prepared were assayed for inhibition of soybean lipoxygenase (Table 1) (Supplementary Information). Many studies have used readily obtainable soybean lipoxygenase, which is a homologue of mammalian lipoxygenase and well examined. The availability of soybean LOX and its well-characterized crystal structure led to its use in this study.
Determination of soybean lipoxygenase inhibition
A solution in DMSO of each compound to be tested was incubated at room temperature with sodium linoleate (0.1 mM) and a solution of soybean lipoxygenase (EC 1.13.11.12) (1:9 x 10^4 w/v in saline, 0.2 mL, Sigma). The conversion of sodium linoleate to 13-hydroperoxylinoleic acid was monitored by observation at 234 nm and compared with the value of appropriate standard inhibitor (Table 1).
as §1

| Compound | IC50 [2] | inhibition at 100 µM (soybean lipoxygenase) | IC50 (soybean lipoxygenase) | melting point | IC50 ([2]; listed as 24) | Hydroxyl radicals scavenged (%) [1] | RA (%) 100μM 20 min [3] | RA (%) 100μM 60 min [3] | Change in body weight (%) (rat model of colitis) |
| --- | --- | --- | --- | --- | --- | --- | --- | --- | --- |
| CN1CCN(c2nc(N)c3nccnc3n2)CC1 [Compound 5a, 2-(4-methylpiperazin-1-yl) pteridin-4-amine] | 41 ± 1.1 µM | 37.5 ± 0.1% |  |  |  | 98% | 15% | 14% | -1.1% |
| Cc1nc2nc(N3CCN(C)CC3)nc(N)c2nc1C [Compound 5b] | 40 ± 0.8 µM |  | 100 ± 0.3 µM |  |  | 94% | 0% | 13% |  |
| CCN1CCNc2nc(N3CCN(C)CC3)nc(N3CCN(C)CC3)c21 [Compound 10a] | 15 ± 0.2 µM |  | 5 ± 0.1 µM | 139 to 140 °C |  | 96% | 79% | 81% |  |
| COc1ccccc1CNc1nc(N2CCN(C)CC2)nc2nccnc12 [Compound 18b] | 21 ± 0.9 µM | 40 ± 0.2% |  |  |  | 90% | 13% | 20% |  |
| CCN1CCN(c2nc(NCc3cccs3)c3nccnc3n2)CC1 [Compound 20a] | 20 ± 0.5 µM |  | 43 ± 0.7 µM | 148 to 149 °C |  | 92% | 4% | 11% |  |
| CN1CCCN(c2nc(NCc3cccs3)c3nccnc3n2)CC1 [Compound 20b] | 41 ± 0.3 µM |  | 62.5 ± 0.5 µM | 130 to 131 °C |  | 94% | 15% | 19% |  |
| CC(Cc1ccc(O)c(O)c1)C(C)Cc1ccc(O)c(O)c1 (centres unmarked) [NDGA, Nordihydroguaiaretic acid, reference compound] |  |  |  |  |  |  | 81% | 83% |  |
| Cc1c(C)c2c(c(C)c1O)CCC(C)(C(=O)O)O2 (centres unmarked) [Trolox, 6-hydroxy-2,5,7,8-tetramethylchroman-2-carboxylic acid, reference compound] | 55.5 µM |  |  |  |  | 73% |  |  |  |

More lines, main results first:

| IC50 [2] | inhibition at 100 µM (soybean lipoxygenase) | IC50 (soybean lipoxygenase) | melting point | IC50 ([2]; listed as 24) | Compound | Hydroxyl radicals scavenged (%) [1] | RA (%) 100μM 20 min [3] | RA (%) 100μM 60 min [3] | Change in body weight (%) (rat model of colitis) |
| --- | --- | --- | --- | --- | --- | --- | --- | --- | --- |
| 0.5 ± 0.03 µM | 22.5 ± 0.1% |  | 107 to 109 °C |  | CN1CCN(c2nc(N)c3nc(-c4ccccc4)c(-c4ccccc4)nc3n2)CC1 [Compound 5c] | 100% | 10% | 6% |  |
| 0.73 ± 0.2 µM |  | 5 ± 0.1 µM |  |  | CN1CCN(c2nc(N3CCN(C)CC3)c3nccnc3n2)CC1 [Compound 9] | 96% | 8% | 14% |  |
| 10 ± 0.43 µM |  | 55 ± 0.2 µM |  |  | CCN1CCN(CC)c2c1nc(N1CCN(C)CC1)nc2N1CCN(C)CC1 [Compound 10b] | 98% | 98% | 97% |  |
| 0.33 ± 0.01 µM |  | 60 ± 0.3 µM |  |  | OC1CCCN(c2nc(N3CCCC(O)C3)c3nccnc3n2)C1 (centres unmarked) [Compound 13] | 95% | 6% | 13% |  |
| 10 ± 0.1 µM | 22.5 ± 0.2% |  | 127 to 128 °C |  | CN1CCN(c2nc(NCCc3ccccc3)c3nccnc3n2)CC1 [Compound 18c] | 97% | 11% | 18% |  |
| 0.33 ± 0.03 µM | 24 ± 0.3% |  | 174 to 175 °C |  | CN1CCN(c2nc(NCc3ccco3)c3nccnc3n2)CC1 [Compound 18e] | 94% | 10% | 17% |  |
| 0.1 ± 0.01 µM |  | 88.5 ± 1.2 µM | 89 to 90 °C |  | Cc1nc2nc(N3CCN(C)CC3)nc(NCc3cccs3)c2nc1C [Compound 18g] | 100% | 12% | 12% |  |
| 0.32 ± 0.02 µM |  | 74 ± 3.5 µM |  | ~0.3 µM | CN1CCN(c2nc(NCc3cccs3)c3nonc3n2)CC1 [Compound 23] | 94% | 16% | 18% |  |
